Assay results as given in patent EP0530994A1, “Quinazoline derivatives as inhibitors of HIV reverse transcriptase” (MERCK & CO. INC., priority 1991, dated 1993).

Biological target: T1, recombinant HIV reverse transcriptase (HIV RTR) (Human immunodeficiency virus type 1 group M subtype B, UniProt P03366)
T1 construct: recombinant HIV reverse transcriptase (HIV RTR)
Experiment: Reverse transcriptase assay (incorporation of tritiated deoxyguanosine monophosphate into acid-precipitable cDNA)
Format: biochemical
Settings: [³H] dGTP and poly r(C)·oligo d(G)12-18 each at about Km; 37°C for 45 minutes; read-out: IC₅₀ value
Method: The assay measures the incorporation of tritiated deoxyguanosine monophosphate by recombinant HIV reverse transcriptase (HIV RTR) (or other RT) into acid-precipitable cDNA at the Km values of dGTP and poly r(C)·oligo d(G)₁₂₋₁₈.
Thirty µL of a reaction mixture containing equal volumes of: 500 mM Tris·HCl (pH 8.2), 300 mM MgCl₂, 1200 mM KCl, 10 mM DTT, 400 µg/mL poly r(c)·oligo d(G) [prepared by dissolving 1.5 mg (25 U) poly r(C)·oligo d(G) in 1.5 ml sterile distilled H₂O and diluting to 400 µg/ml], 0.1 µCi/µl [³H] dGTP, 160 µM dGTP, was added to 10 µl sterile distilled H₂O, 2.5 µl of potential inhibitor and 10 µL of 5 nM purified HIV RTR in tubes. The mixture was incubated at 37°C for 45 minutes.
After incubation is complete, the tubes were cooled in ice for 5 minutes. Ice-cold 13% TCA containing 10 mM NaPPi (200 µl) is added and the mixture incubated on ice for 30 minutes. The precipitated cDNA is removed by filtration using presoaked glass filters [TCA, NaPPi]. […]
The filter discs are then counted in a scintillation counter.
Under these conditions [dGTP] and poly r(C)·oligo d(G)₁₂₋₁₈ each are approximately equal to the appropriate Km value. […] Calculated IC₅₀ values for the tested compounds of this invention vary from about 12 nM to more than 300 µM, with the most preferred compounds having values of between about 30 nM and about 60 µM. […]

In the case of `C#CC1(c2ccccc2)c2cc(Cl)ccc2NC(=O)N1C` (single isomer, unassigned; (+)) [(+) optical isomer of compound 4, 6-Chloro-3,4-dihydro-3-methyl-4-phenyl-4-ethynyl-2(1H)-quinazolinone], the IC50 is reported as roughly 0.06 nM.
